Values quoted from earlier work as cited in patent US8796326B1, “Fire ant killer (F.A.K.)/ insecticide” (priority 2008, dated 2014).

Tested on: bacterial contamination on the hands and on treated products

SMILES: Oc1cc(Cl)ccc1Oc1ccc(Cl)cc1Cl [Triclosan, 5-chloro-2-(2,4-dichlorophenoxy)phenol]
- reducing and controlling bacterial contamination: effective
